According to paper PMC12207590, “Substrate Specificity of the Organic Cation Transporters MATE1 and MATE2K and Functional Overlap with OCT1 and OCT2” (Journal of Medicinal Chemistry, 2025):
Like-named read-outs stand apart in the source and are kept apart here.

Columns and labels:
[1] = biological target: T1, MATE1 (Homo sapiens, UniProt Q96FL8); test: Uptake ratio in MATE1-overexpressing HEK293 cells vs empty vector (2.5 μM, 1 min, HPLC-MS/MS); type: cell-based
T1 sequence (Q96FL8 1-570): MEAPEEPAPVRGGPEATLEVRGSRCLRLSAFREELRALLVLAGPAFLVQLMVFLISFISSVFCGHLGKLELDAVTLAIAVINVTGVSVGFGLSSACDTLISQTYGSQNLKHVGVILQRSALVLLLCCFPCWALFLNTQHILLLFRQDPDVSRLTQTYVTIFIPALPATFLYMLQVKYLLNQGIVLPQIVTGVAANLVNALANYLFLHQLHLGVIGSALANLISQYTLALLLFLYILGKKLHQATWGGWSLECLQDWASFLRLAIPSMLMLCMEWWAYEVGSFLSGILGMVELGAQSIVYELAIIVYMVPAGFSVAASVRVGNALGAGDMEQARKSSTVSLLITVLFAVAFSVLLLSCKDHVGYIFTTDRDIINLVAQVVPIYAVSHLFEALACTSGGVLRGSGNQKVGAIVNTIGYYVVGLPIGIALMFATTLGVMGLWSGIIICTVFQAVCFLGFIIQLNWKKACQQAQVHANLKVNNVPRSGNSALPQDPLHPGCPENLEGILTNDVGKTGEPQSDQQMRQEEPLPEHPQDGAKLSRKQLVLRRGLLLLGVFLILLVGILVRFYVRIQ

[2] = biological target: MATE2K (Homo sapiens, UniProt Q86VL8); test: Uptake ratio in MATE2K-overexpressing HEK293 cells vs empty vector (2.5 μM, 1 min, HPLC-MS/MS); type: cell-based
[3] = fold uptake over empty vector, 2.5 μM, 1 min
[4] = mean ratio of uptake in MATE1-overexpressing HEK293 cells vs empty vector, 2.5 μM, 1 min
[5] = mean ratio of uptake in MATE2K-overexpressing HEK293 cells vs empty vector, 2.5 μM, 1 min
[6] = uptake ratio MATE1-overexpressing vs empty-vector HEK293 cells, 2.5 μM, 1 min, mean
[7] = uptake ratio MATE2K-overexpressing vs empty-vector HEK293 cells, 2.5 μM, 1 min, mean

MATE2K, sequence (Q86VL8 1-566 isoform Q86VL8-3): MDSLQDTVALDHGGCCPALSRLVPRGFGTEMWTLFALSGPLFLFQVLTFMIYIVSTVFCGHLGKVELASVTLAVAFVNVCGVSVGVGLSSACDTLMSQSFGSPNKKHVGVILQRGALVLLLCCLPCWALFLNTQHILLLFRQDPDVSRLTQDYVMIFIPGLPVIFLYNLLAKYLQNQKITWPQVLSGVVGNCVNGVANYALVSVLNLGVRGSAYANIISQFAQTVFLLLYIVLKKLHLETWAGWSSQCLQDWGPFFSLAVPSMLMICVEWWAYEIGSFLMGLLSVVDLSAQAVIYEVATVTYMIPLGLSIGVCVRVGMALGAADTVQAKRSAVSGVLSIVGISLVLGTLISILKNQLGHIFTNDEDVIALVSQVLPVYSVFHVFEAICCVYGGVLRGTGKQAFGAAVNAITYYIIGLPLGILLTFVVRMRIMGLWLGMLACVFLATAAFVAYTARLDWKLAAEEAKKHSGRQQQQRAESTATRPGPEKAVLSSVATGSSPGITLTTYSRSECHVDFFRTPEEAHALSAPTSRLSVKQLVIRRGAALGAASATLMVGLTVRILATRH

## OCCN1CCN(CCCN2c3ccccc3Sc3ccc(C(F)(F)F)cc32)CC1 [Fluphenazine]
[1]; [3]
  MATE1 ratio: 1.26
[2]; [3]
  MATE2K ratio: 1.13

## CCc1cc2c(cc1CC)CC(NC[C@H](O)c1ccc(O)c3[nH]c(=O)ccc13)C2 [Indacaterol]
[1]; [3]
  MATE1 ratio: 1.98
[2]; [3]
  MATE2K ratio: 1.88

## CC(C)NCC(O)c1ccc(O)c(O)c1 (stereo not shown) [Isoprenaline]
[1]; [3]
  MATE1 ratio: 16.78
[2]; [3]
  MATE2K ratio: 4.67

## CC(=O)Oc1c(C)cc(OCC(O)CNC(C)C)c(C)c1C (stereo not shown) [Metipranolol]
[1]; [3]
  MATE1 ratio: 1.21
[2]; [3]
  MATE2K ratio: 1.17

## CC1(C)S[C@@H]2[C@H](NC(=O)[C@H](N)c3ccc(O)cc3)C(=O)N2[C@H]1C(=O)O [Amoxicillin]
[1]; [3]
  MATE1 ratio: 1.82
[1]; [4]
  MATE1 (uptake ratio): 1.82
[2]; [3]
  MATE2K ratio: 0.67
[2]; [5]
  MATE2 (uptake ratio): 0.67

## CC(C)(C)NCC(O)c1ccc(O)c(CO)c1 [Salbutamol (S), Salbutamol]
[1]; Table S1, 2.5 μM, 1 min
  MATE1 ratio in this study: 8.88
[1]; [3]
  MATE1 ratio: 8.88
[1]; [6]
  MATE1: 8.88
[2]; Table S1, 2.5 μM, 1 min
  MATE2K ratio in this study: 5.09
[2]; [3]
  MATE2K ratio: 5.09
[2]; [7]
  MATE2: 5.09

## O=c1[nH]c2ccccc2n1C1CCN(CCCC(c2ccc(F)cc2)c2ccc(F)cc2)CC1 [Pimozide]
[1]; [3]
  MATE1 ratio: 0.98
[2]; [3]
  MATE2K ratio: 0.76

## CC(C)(C)NCC(O)c1ccc(O)c(O)c1 (stereo not shown) [Colterol]
[1]; [3]
  MATE1 ratio: 10.79
[1]; [4]
  MATE1 (uptake ratio): 10.79
[2]; [3]
  MATE2K ratio: 5.80
[2]; [5]
  MATE2 (uptake ratio): 5.8

## CCS(=O)(=O)N1CC(CC#N)(n2cc(-c3ncnc4[nH]ccc34)cn2)C1 [Baricitinib]
[1]; Table S1, 2.5 μM, 1 min
  MATE1 ratio in this study: 0.82
[1]; [3]
  MATE1 ratio: 0.82
[1]; [4]
  MATE1 (uptake ratio): 0.82
[2]; Table S1, 2.5 μM, 1 min
  MATE2K ratio in this study: 1.04
[2]; [3]
  MATE2K ratio: 1.04
[2]; [5]
  MATE2 (uptake ratio): 1.04

## CCCCC[C@H](O)/C=C/[C@H]1[C@H](O)CC(=O)[C@@H]1C/C=C\CCCC(=O)O [Prostaglandin E2]
[1]
  MATE1: 1.35
  MATE1 ratio: 1.35
[2]
  MATE2: 1.21
  MATE2K ratio: 1.21

## CC(C)C[C@H](N)C(=O)O [Leucine]
[1]; [3]
  MATE1 ratio: 1.18
[2]; [3]
  MATE2K ratio: 1.06

## NCC(O)c1ccc(O)cc1 (stereo not shown) [Octopamine]
[1]; [3]
  MATE1 ratio: 20.87
[2]; [3]
  MATE2K ratio: 1.43

## NCc1ccc(O)cc1
[1]
  MATE1 ratio: 1.48
[2]
  MATE2K ratio: 1.09

## NC12CC3CC(CC(C3)C1)C2 [Amantadine]
[1]
  MATE1 (uptake ratio): 1.42
  MATE1 ratio: 1.42
[2]
  MATE2 (uptake ratio): 1.48
  MATE2K ratio: 1.48

## CNCCCC1(c2ccc(F)cc2)OCc2cc(C#N)ccc21 (stereo not shown) [N-Desmethylcitalopram]
[1]
  MATE1 ratio: 1.09
[2]
  MATE2K ratio: 1.09

## CC(C)(C)c1ccc(C(O)CCCN2CCC(C(O)(c3ccccc3)c3ccccc3)CC2)cc1 (stereo not shown) [Terfenadine]
[1]; [6]
  MATE1: 1.07
[2]; [7]
  MATE2: 0.93

## N=C(N)NC(=N)Nc1ccc(Cl)cc1 [1-(4-Chlorophenyl)biguanide]
[1]
  MATE1 (uptake ratio): 6.97
  MATE1 ratio: 6.97
[2]
  MATE2 (uptake ratio): 3.82
  MATE2K ratio: 3.82

## CC(C)(C)NCC(O)c1cc(O)cc(O)c1 (stereo not shown) [Terbutaline]
[1]; [6]
  MATE1: 6.74
[2]; [7]
  MATE2: 7.04

## NC(N)=NCc1cccc(I)c1 [m-Iodobenzylguanidin]
[1]; [3]
  MATE1 ratio: 3.53
[2]; [3]
  MATE2K ratio: 2.28

## CNC[C@H](O)c1ccc(O)c(O)c1 (racemic) [Epinephrine (rac), Epinephrine]
[1]; [3]
  MATE1 ratio: 18.70
[2]; [3]
  MATE2K ratio: 3.27

## CN1CC(=O)NC1=N [Creatinine]
[1]; Table S1, 2.5 μM, 1 min
  MATE1 ratio in this study: 0.83
[1]; [3]
  MATE1 ratio: 0.83
[2]; Table S1, 2.5 μM, 1 min
  MATE2K ratio in this study: 1.07
[2]; [3]
  MATE2K ratio: 1.07

## CCC(C)C(=O)OC(CC(=O)[O-])C[N+](C)(C)C (stereo not shown) [2-Methylbutyrylcarnitine]
[1]; [3]
  MATE1 ratio: 0.61
[1]; [4]
  MATE1 (uptake ratio): 0.61
[2]; [3]
  MATE2K ratio: 1.24
[2]; [5]
  MATE2 (uptake ratio): 1.24

## C[n+]1ccc(-c2ccccc2)cc1 [1-Methyl-4-phenylpyridinium]
[1]
  MATE1 (uptake ratio): 23.35
  MATE1 ratio: 23.35
  MATE1 ratio in this study: 23.35
[2]
  MATE2 (uptake ratio): 9.05
  MATE2K ratio: 9.05
  MATE2K ratio in this study: 9.05

## CCC(NC(C)C)C(O)c1ccc(O)c(O)c1 (stereo not shown) [Isoetharine]
[1]; [3]
  MATE1 ratio: 5.65
[2]; [3]
  MATE2K ratio: 1.85

## NC(=O)OCC(COC(N)=O)c1ccccc1 [Felbamate]
[1]; [3]
  MATE1 ratio: 0.97
[2]; [3]
  MATE2K ratio: 0.94
